Laboratory results taken from paper PMC7155171, “Probing the Open Global Health Chemical Diversity Library for Multistage-Active Starting Points for Next-Generation Antimalarials” (ACS Infectious Diseases, 2020).
Where two headings read alike, the source gives them in different places.

Experiments:
[1] = tested on: P. falciparum Dd2 (PfLuc) line expressing firefly luciferase, asexual blood stage; assay: microbe, parasite or virus in culture; assay type: cell-based, Plasmodium falciparum; conditions: Plasmodium falciparum
[2] = tested on: P. falciparum Dd2; assay: SYBR green I asexual blood stage proliferation assay (96 h); assay type: cell-based, Plasmodium falciparum; conditions: for IC50 / Emax: Plasmodium falciparum
[3] = DD2, read-out: CDD P. falciparum Luciferase ABS 11-pt Reconfirmation Dose Response (48hr): IC50 (μM), 11-pt dose response, 48hr
[4] = DD2, 8-pt dose response, 96hr, read-out: CDD P. falciparum Luciferase ABS 8-pt Reconfirmation Dose Response (96hr): IC50
[5] = DD2, 8-pt dose response, 96hr, read-out: CDD P. falciparum Luciferase ABS 8-pt Reconfirmation Dose Response (96hr): Maximum inhibition (%)
[6] = DD2, 11-pt dose response, 48hr, read-out: CDD P. falciparum Luciferase ABS 11-pt Reconfirmation Dose Response (48hr): Maximum inhibition (%)
[7] = DD2, 11-pt dose response, 96hr, read-out: CDD P. falciparum Luciferase ABS 11-pt Reconfirmation Dose Response (96hr): IC50
[8] = DD2, 11-pt dose response, 96hr, read-out: CDD P. falciparum Luciferase ABS 11-pt Reconfirmation Dose Response (96hr): Maximum inhibition (%)
[9] = DD2, Sybr Green I, 11-pt dose response, 96hr, read-out: CDD P. falciparum Sybr Green I ABS 11-pt Reconfirmation Dose Response (96hr): IC50
[10] = DD2, Sybr Green I, 11-pt dose response, 96hr, read-out: CDD P. falciparum Sybr Green I ABS 11-pt Reconfirmation Dose Response (96hr): Maximum inhibition (%)
[11] = DD2, read-out: P. falciparum Luciferase ABS 11-pt Reconfirmation Dose Response (48hr): IC50, 11-pt dose response, 48hr
[12] = DD2, 8-pt dose response, 96hr, read-out: P. falciparum Luciferase ABS 8-pt Reconfirmation Dose Response (96hr): IC50
[13] = DD2, 8-pt dose response, 96hr, read-out: P. falciparum Luciferase ABS 8-pt Reconfirmation Dose Response (96hr): Maximum inhibition (%)
[14] = DD2, 11-pt dose response, 96hr, read-out: P. falciparum Luciferase ABS 11-pt Reconfirmation Dose Response (96hr): IC50
[15] = DD2, 11-pt dose response, 96hr, read-out: P. falciparum Luciferase ABS 11-pt Reconfirmation Dose Response (96hr): Maximum inhibition (%)
[16] = DD2, 11-pt dose response, 96hr, read-out: P. falciparum Sybr Green I ABS 11-pt Reconfirmation Dose Response (96hr): IC50
[17] = DD2, 11-pt dose response, 96hr, read-out: P. falciparum Sybr Green I ABS 11-pt Reconfirmation Dose Response (96hr): Maximum inhibition (%)
[18] = DD2, 11-pt dose response, 48hr, read-out: P. falciparum Luciferase ABS 11-pt Reconfirmation Dose Response (48hr): Maximum inhibition (%)

Compound	IC50 [1, 3] [µM]	IC50 [1, 4] [µM]	Emax [1, 5] [%]	Emax [1, 6] [%]	IC50 [1, 7] [µM]	Emax [1, 8] [%]	IC50 [2, 9] [µM]	Emax [2, 10] [%]	IC50 [1, 12] [µM]	Emax [1, 13] [%]	also measured
COc1cc(CNCC(O)c2ccc(F)c(F)c2)cc2c1OCO2 (stereo not shown) [DDD00408586]	2.05	0.55	90.7	96.5	1.22	99.5	1.89	97.2	–	–	–
CC[C@H]1CN2CC[C@H]1C[C@@H]2CNCc1ccc(OC(F)(F)F)cc1 [DDD01025218]	2.91	1.07	92.1	93	> 1.39	100	4.16	89.4	–	–	–
COc1ccc2[nH]c(C[C@@H]3C[C@@H](C(C)C)[C@H](CN(C)C)C=C3C)nc2c1 [DDD01025345]	12	0.59	88.6	66.8	1.53	91.5	3.63	67.2	–	–	–
CCC1CN(CC(=O)NCCN2CCCCC2)c2ccccc2S1 (stereo not shown) [DDD01025850]	5.56	1.1	87.2	55.4	2.56	83.2	7.99	74.7	–	–	–
CN1CC[C@H](N(Cc2ccccc2)Cc2ccccc2)C[C@H](O)C1 [DDD01026217]	> 4.16	0.91	80.7	69.3	> 4.16	93.7	7.31	73.4	–	–	–
Cc1ccc(C(CCNCCCN(C)C)C2CCOC(C)(C)C2)cc1 (stereo not shown) [DDD01026662]	7.59	0.76	96.2	95.3	5.89	98.8	1.57	97.5	–	–	–
CN(C)CCCNCCC(Cc1ccccc1)C1CCOC(C)(C)C1 (stereo not shown) [DDD01026664, CN(C)CCCNCCC(Cc1ccccc1)C1CCOC(C)(C)C1]	–	–	–	–	–	–	–	–	–	–	IC50 ([1]; DD2, read-out: CDD P. falciparum Luc 11pt dose response (96hr, n=2): IC50 (μM), 96hr, 11-point, n=2): 0.11 µM; IC50 ([1]; DD2, read-out: CDD P. falciparum Luciferase 11pt dose response (48hr, n=2): IC50 (μM), 48hr, 11-point, n=2): 0.405 µM; Emax ([1]; DD2, 48hr, 11-point, read-out: CDD P. falciparum Luciferase ABS 11-pt Reconfirmation Dose Response (48hr): Maximum inhibition (%)): 98.1%; Emax ([1]; DD2, 96hr, 11-point, read-out: CDD P. falciparum Luciferase ABS 11-pt Reconfirmation Dose Response (96hr): Maximum inhibition (%)): 101%; CDD P. falciparum Sybr Green I ABS Dd2 Dose Response: Maximum measured (%) ([2]; Dd2, 96 h): 98.8%; IC50 ([2]; DD2, 96 h, read-out: CDD P. falciparum Sybr Green I ABS Dd2 Dose Response: IC50): 0.251 µM
Cc1ncc(CNCCO)c2cc(C(=O)c3ccc(Br)cc3)oc12 [DDD01027290]	–	–	–	–	–	–	–	–	1.35	90.8	IC50 [1, 11]: > 12.5 µM; IC50 [1, 14]: 1.63 µM; Emax [1, 15]: 98.3%; IC50 [2, 16]: 3.32 µM; Emax [2, 17]: 63.7%
O=S(=O)(NCC(c1ccsc1)N1CCCCCC1)c1cccs1 (stereo not shown) [DDD01027501]	–	–	–	–	–	–	–	–	1.94	83.7	IC50 [1, 11]: > 12.5 µM; Emax [1, 18]: 44%; IC50 [1, 14]: 8.75 µM; IC50 [2, 16]: 7.79 µM; Emax [2, 17]: 69.9%
Cc1cc(C)c(N(CC(O)CNCc2ccccc2)S(C)(=O)=O)c(C)c1 (stereo not shown) [DDD01027603]	2.17	0.51	90.1	75	0.829	90.9	4.91	81.7	–	–	–
Cn1cc(CN2CCCC(CCc3ccc(F)cc3)C2)cn1 (stereo not shown) [DDD01246631]	–	–	–	–	–	–	–	–	1.75	84.6	–
CC(C)(C)n1cc(C2=CCN(CCN3CCCCCC3)CC2)cn1 [DDD01248990]	–	–	–	–	–	–	–	–	1.53	78.1	–
COc1ccc2[nH]c(CNc3cc(C4CCNCC4)nc(C)n3)cc2c1 [DDD01249030]	–	–	–	–	–	–	–	–	1.88	88	–
CN1CCC(N(C)C[C@H]2CC[C@@H](Cc3ccc4occc4c3)O2)CC1 [DDD01250070]	–	–	–	–	–	–	–	–	1.57	82.8	–
C=Cc1cccc(CN2C[C@@H](CN(C)CC)[C@@H](CO)C2)c1 [DDD01250237]	–	–	–	–	–	–	–	–	1.27	83.3	–
C[C@@H]1CN(C(=O)C2CCS(=O)(=O)CC2)CC[C@@]1(O)C1CCOCC1 [DDD01250493]	–	–	–	–	–	–	–	–	1.67	82.2	–
O=C(CCN1CCCC(CO)(CC2CC2)C1)NCc1cccc(Cl)c1 (stereo not shown) [DDD01250518]	–	–	–	–	–	–	–	–	1.83	81.8	–
COc1ccccc1CCN1CCCC(CN(C)Cc2ccc(C)o2)C1 (stereo not shown) [DDD01250738]	–	–	–	–	–	–	–	–	1.36	86.1	–
COc1ccnc(CN2CCCC(CCc3ccccc3)C2)c1OC (stereo not shown) [DDD01250826]	–	–	–	–	–	–	–	–	1.26	92.5	IC50 [1, 11]: 1.41 µM; Emax [1, 18]: 93%; IC50 [1, 14]: 0.447 µM; Emax [1, 15]: 99.3%
Cn1cc(CN2CCCC(CCc3ccc(F)cc3F)C2)cn1 (stereo not shown) [DDD01251707]	–	–	–	–	–	–	–	–	1.69	81	–
